Consider 9 compounds from PMC11477965, “Synthesis and Anti-Liver Fibrosis Research of Aspartic Acid Derivatives” (Molecules, 2024).

The test system of one data set is LX-2 cells. Description: SRB cytotoxicity assay in LX-2 cells. It is filed as cell-based, human. The note with it: CC50 in LX-2 cells / IC50 on COL1A1 promoter. Here is the method: (§1) Their cytotoxicity in LX-2 cells was assessed across various concentrations using the SRB assay, and the cytotoxic concentrations (CC50) were determined. The selectivity index (SI), calculated as the ratio of CC50 to the […] (IC50), was employed to evaluate the compounds’ effects on the COL1A1 promoter (Table 2).
(§2) The LX-2 cells were seeded in a 96-well plate when reaching 90% confluent. After 24 h, the compound to be tested was prepared using a complete medium and added to the 96-well plate for 24 h. After washing with PBS, the cells were fixed with 10% (wt/vol) trichloroacetic acid for 1 h, washed with deionized water and dried completely and, after staining with SRB for 20 min, the excess dye was washed with 1% acetic acid (vol/vol) three times. The dye bound to the protein was dissolved with 10 mM Tris base solution and OD values were determined at […].

Data set [1] in a line: SRB cytotoxicity assay in LX-2 cells. It is filed as cell-based, human. The note with it: human, LX-2 cells, SRB assay, 24 h; read-out: CC50, cytotoxic concentration required to inhibit the growth of LX-2 cells by 50%. The procedure:
as §1, §2

The subject of another data set is COL1A1 promoter. Description: COL1A1 promoter luciferase reporter inhibition assay in LX-2 cells.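 For all read-outs here: Anti-fibrotic screen: luciferase reporter driven by the COL1A1 promoter in human hepatic stellate LX-2 cells, compounds applied in complete medium in 96-well plates.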 It is filed as cell-based, human. The settings on record: for IC50 / inhibition at 500 µM: Homo sapiens; for IC50: LX-2, LX-2 cells, read-out: IC50 to inhibit the activity of COL1A1 promoter by 50%; for inhibition at 500 µM / relative fluorescence unit (RFU) of COL1A1 promotor: LX-2 cells; for inhibition at 500 µM: 24 h, read-out: Inhibitory Rate (%) of COL1A1 promotor; for relative fluorescence unit (RFU) of COL1A1 promotor: mean ± SD, n = 3, Control 124874.7 ± 10750.9.

Data set [2] has as its system IKKβ-NF-κB signaling pathway. Description: LPS-induced inflammation in LX-2 cells (western blot). The class given is cell-based, human. The note with it: LPS 1 μg/mL, 24 h, 500 μM bands scanned. Here is the method: Inflammation is crucial in the onset and progression of liver fibrosis, and fibrosis can further exacerbate tissue inflammation. […] To assess the anti-inflammatory effects of Compounds 41 and 8a, LX-2 cells were pre-incubated in serum-free medium for 24 h before LPS stimulation, followed by treatment with different concentrations of the compounds in serum-free medium containing 1 μg/mL LPS for another 24 h. Changes in inflammatory cytokine protein levels were analyzed using western blotting.
The IKKβ-NF-κB signaling pathway has been closely linked to the severity of liver fibrosis, with IKKβ serving as the primary catalytic subunit responsible for NF-κB activation. Therefore, this study investigated the NF-κB pathway by measuring IKKβ kinase activity. […] To evaluate the effects of the target compounds on LPS-induced inflammatory cytokines, four concentrations (50, 100, 200 and 500 μmol/L) were tested, and the results were analyzed by grayscale scanning of western blot bands using ImageJ software (version 1.53t), with normalization to GAPDH protein levels.
After the confluence of LX-2 cells reached 90%, the cells were treated with serum-free medium for 24 h. 2 ng/mL TGFβ1 or 1 μg/mL LPS were used in combination with compounds of different concentrations for 24 h. The samples of cells were lysed in RIPA buffer supplemented with protease inhibitor cocktail (Roche) and separated by SDS-PAGE. After the proteins were transferred to the PVDF membrane, 5% skim milk in TBS-T buffer was used to block them at room temperature for 2 h. Specific primary and secondary antibodies were used to detect the target protein. Finally, the blot was visualized using the Tanon 5200 system (Tanon, Shanghai, China) and the protein expression of GAPDH was used as the internal reference.
(In general: Immunoblotting shows a protein as a band on a membrane.)

Experimental for COL1A1 promoter: A total of 32 target compounds, the lead compound L-Asp, and the positive control epigallocatechin gallate (EGCG), known for its anti-hepatic fibrotic activity [29], were tested for inhibitory effects on COL1A1 promoter activity at a concentration of 0.5 mM.
The LX-2 cells at 90% confluent were transfected with the plasmid of pGL4.17-COL1A1 promoter using Lipofectamine 2000 (Invitrogen, 11668019, Carlsbad, CA, USA) with Opti-MEM serum-free medium (Gibco, 1930104). After culturing for 6 h, the cells were replaced with a complete medium and seeded in 96-well plates for 24 h. The compound to be tested was prepared using a complete medium and added to the 96-well plate. After 24 h, Bright-Glo Luciferase Assay System (Promega, Madison, WI, USA) was used to detect the activity of COL1A1 promoter and the assaying inhibition rate.

As usually defined, the melting point is the temperature of the solid-liquid transition. As a reminder, the IC50 is the concentration needed to halve the response being measured. Compound `CC(C)(C)OC(=O)C[C@H](NC(=O)OCC1c2ccccc2-c2ccccc21)C(=O)NCCO` [Compound 3, Tert-butyl (S)-3-((((9H-fluoren-9-yl)methoxy)carbonyl)amino)-4-((2-hydroxyethyl)amino)-4-oxobutanoate] returned a melting point of 93.2 to 95.6 °C. Also, in the data set on LX-2 cells, the “SI, selectivity index (CC50/IC50)” value is reported as 2.01. For the same compound, the CC50 at 24 h in data set [1] worked out at 660 ± 24.6 µM. Further, in the data set with COL1A1 promoter, the IC50 came to 327 ± 17.1 µM and the “relative fluorescence unit (RFU) of COL1A1 promotor” value (“relative fluorescence unit (RFU)” for short) is given as 23056.9 ± 7017.3 RFU. Besides, the inhibition at 500 µM in the data set on COL1A1 promoter (0.5 mM) amounted to 81.5 ± 5.62%.
For `CC[C@@H]1C2C[C@H](O)CC[C@]2(C)C2CC[C@@]3(C)C(CCC3[C@H](C)CCC(=O)N[C@@H](CC(=O)O)C(=O)O)C2[C@@H]1O` (stereo partly drawn) [Compound 9, ((4R)-4-((3R,6R,7R,10S,13R)-6-ethyl-3,7-dihydroxy-10,13-dimethylhexadecahydro-1H-cyclopenta[a]phenanthren-17-yl)pentanoyl)-L-aspartic acid], the melting point fell in the range of 108.2 to 110.6 °C. Also, in the data set on LX-2 cells, the “SI, selectivity index (CC50/IC50)” value amounted to 1.30. The CC50 at 24 h in data set [1] is 351 ± 19.4 µM. Besides, in the data set on COL1A1 promoter, the concentration for half-maximal inhibition (IC50) came out at 270 ± 47.9 µM and the “relative fluorescence unit (RFU)” value is 3188.3 ±4407.2 RFU. Moreover, the inhibition at 500 µM with COL1A1 promoter (0.5 mM) was 97.4 ± 3.53%.
`NC(Cc1cc(=O)c(O)co1)C(=O)O` (stereo not drawn) [Compound 20a, 2-amino-3-(5-hydroxy-4-oxo-4H-pyran-2-yl)propanoic acid]: the melting point was in the range of 217.1 to 219.8 °C. In the data set with COL1A1 promoter (0.5 mM), the inhibition at 500 µM was determined as 17.9 ± 10.1%. In addition, the “relative fluorescence unit (RFU)” value in the data set with COL1A1 promoter turned out to be 102508.7 ± 12580.9 RFU.
The compound `N[C@@H](CC(=O)OCc1cc(=O)c(O)co1)C(=O)O` [Compound 23a, (S)-2-amino-4-((5-hydroxy-4-oxo-4H-pyran-2-yl)methoxy)-4-oxobutanoic acid] showed a melting point of 156.3 to 158.7 °C. Further, the inhibition at 500 µM in the data set with COL1A1 promoter (0.5 mM) came out at 27.9 ± 1.16%. For the same compound, the “relative fluorescence unit (RFU)” value in the data set on COL1A1 promoter turned out to be 90057.5 ± 1452.6 RFU.
In turn, `Cc1cc(=O)n2c(CNC(=O)c3cccc(F)c3F)csc2n1` [Compound 28a, 2,3-difluoro-N-((7-methyl-5-oxo-5H-thiazolo [3,2-a]pyrimidin-3-yl)methyl)benzamide] registered a melting point of 218 to 220.2 °C. For the same compound, in the data set with COL1A1 promoter (0.5 mM), the inhibition at 500 µM turned out to be 43.9 ± 6.36%. For the same compound, the “relative fluorescence unit (RFU)” value with COL1A1 promoter is 70040.5 ± 7951.7 RFU.
On the same counts, the results for `Cc1cc(=O)n2c(CC(=O)N[C@@H](CC(=O)O)C(=O)O)csc2n1` [Compound 35, (2-(7-methyl-5-oxo-5H-thiazolo [3,2-a]pyrimidin-3-yl)acetyl)-L-aspartic acid] are 253.1 to 256.8 °C, under 0% and 161478.3 ± 67708.9 RFU.
Regarding `COC(=O)[C@H]1C[C@H](Oc2cc(C)nn3c(-c4ccc(OC)c(OC)c4)cnc23)CN1` [Compound 43, Methyl (2R,4S)-4-((3-(3,4-dimethoxyphenyl)-6-methylimidazo [1,2-b]pyridazin-8-yl)oxy)pyrrolidine-2-carboxylate], the melting point lay within 127.2 to 129.6 °C. In addition, the “fold decrease in COL1A1 promoter inhibitory activity relative to 45” value with COL1A1 promoter (0.5 mM, versus 45) came to 1.8 fold. Besides, the inhibition at 500 µM in the data set with COL1A1 promoter (0.5 mM) worked out at 38.2 ± 3.28%. The “relative fluorescence unit (RFU)” value in the data set on COL1A1 promoter came to 77132.5 ± 4101.8 RFU.
`COc1ccc(-c2cnc3c(O[C@@H]4CN[C@@H](C(=O)O)C4)cc(C)nn23)cc1OC` [Compound 45, (2R,4S)-4-((3-(3,4-dimethoxyphenyl)-6-methylimidazo [1,2-b]pyridazin-8-yl)oxy)pyrrolidine-2-carboxylic acid]: in the data set with LX-2 cells, the “SI, selectivity index (CC50/IC50)” value was 2.12. The CC50 at 24 h in data set [1] amounted to 632 ± 11.2 µM. Further, in the data set with COL1A1 promoter, the half-maximal inhibitory concentration (IC50) was 298 ± 51.7 µM and the “relative fluorescence unit (RFU)” value came out at 37918.9 ± 10579.6 RFU. The inhibition at 500 µM with COL1A1 promoter (0.5 mM) stood at 69.6 ± 8.48%.
For `N[C@@H](CC(=O)O)C(=O)O` [L-Asp, L-aspartic acid, reference compound], in data set [2], the “inhibition of inflammatory factors” value is “moderate inhibition”. Also, the inhibition at 500 µM with COL1A1 promoter (0.5 mM) was 11.3 ± 0.35%. Besides, the “relative fluorescence unit (RFU)” value with COL1A1 promoter stood at 110724.3 ± 444.6 RFU.
